Data published in PubChem BioAssay AID1963958 (Molecular Pharmacology Branch, DTP, NCI, 2024).

System: MDA-MB-231 multicell spheroids, viability
Assay: Anticancer human tumor MDA-MB-231 cell line growth inhibition [PI3K];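 also: spheroids exposed to agents for seven days before reading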;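 as to viability, T/C: percent of vehicle control luminescence with DMSO treated spheroids as 100%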
Conditions: for IC50: curve of first compound; for viability, T/C: stronger effect = lower value
How it was run: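 Spheroid viability read-out. Co-cultures contained the tumor line plus HUVEC and human MSCs. Each agent was paired with a PI3K inhibitor (inavolisib, alpelisib, duvelisib, copanlisib) across half-log dilutions starting at clinical Cmax, or at 10 microM when Cmax was unknown.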

[1] = second compound 0.0316 µM, first compound 0.0316 µM
[2] = second compound 0.0316 µM, first compound 0.1 µM
[3] = second compound 0.1 µM, first compound 0.0316 µM
[4] = second compound 0.1 µM, first compound 0.1 µM
[5] = second compound 0.316 µM, first compound 0.0316 µM
[6] = second compound 0.316 µM, first compound 0.1 µM
[7] = second compound 1 µM, first compound 0.0316 µM
[8] = second compound 1 µM, first compound 0.1 µM
[9] = second compound 3.16 µM, first compound 0.0316 µM
[10] = second compound 3.16 µM, first compound 0.1 µM
[11] = second compound 10 µM, first compound 0.0316 µM
[12] = second compound 10 µM, first compound 0.1 µM

Cn1ncc(Cl)c1-c1cc(C(=O)NC(CN)Cc2cccc(F)c2)sc1Cl (centres undefined) + CC(Nc1ncnc2nc[nH]c12)c1cc2cccc(Cl)c2c(=O)n1-c1ccccc1
IC50 (second compound 0.0316 µM): 3880 nM
IC50 (second compound 0.1 µM): 3590 nM
IC50 (second compound 0.316 µM): 2610 nM
IC50 (second compound 1 µM): 2190 nM
IC50 (second compound 3.16 µM): 1050 nM
IC50 (second compound 10 µM): < 31.6 nM
viability, T/C [1]: 100%
viability, T/C [2]: 96.4%
viability, T/C (second compound 0.0316 µM, first compound 0.316 µM): 84.6%
viability, T/C (second compound 0.0316 µM, first compound 1 µM): 74.9%
viability, T/C (second compound 0.0316 µM, first compound 3.16 µM): 55%
viability, T/C (second compound 0.0316 µM, first compound 10 µM): 27.8%
viability, T/C [3]: 103%
viability, T/C [4]: 97.7%
viability, T/C (second compound 0.1 µM, first compound 0.316 µM): 95.4%
viability, T/C (second compound 0.1 µM, first compound 1 µM): 75.4%
viability, T/C (second compound 0.1 µM, first compound 3.16 µM): 53.3%
viability, T/C (second compound 0.1 µM, first compound 10 µM): 29.2%
viability, T/C [5]: 93.1%
viability, T/C [6]: 97.6%
viability, T/C (second compound 0.316 µM, first compound 0.316 µM): 84.9%
viability, T/C (second compound 0.316 µM, first compound 1 µM): 65.2%
viability, T/C (second compound 0.316 µM, first compound 3.16 µM): 48.9%
viability, T/C (second compound 0.316 µM, first compound 10 µM): 27.5%
viability, T/C [7]: 77.5%
viability, T/C [8]: 80.5%
viability, T/C (second compound 1 µM, first compound 0.316 µM): 69.5%
viability, T/C (second compound 1 µM, first compound 1 µM): 64%
viability, T/C (second compound 1 µM, first compound 3.16 µM): 43.6%
viability, T/C (second compound 1 µM, first compound 10 µM): 23.4%
viability, T/C [9]: 63.6%
viability, T/C [10]: 62.2%
viability, T/C (second compound 3.16 µM, first compound 0.316 µM): 57%
viability, T/C (second compound 3.16 µM, first compound 1 µM): 51.9%
viability, T/C (second compound 3.16 µM, first compound 3.16 µM): 36.3%
viability, T/C (second compound 3.16 µM, first compound 10 µM): 22%
viability, T/C [11]: 45.3%
viability, T/C [12]: 45%
viability, T/C (second compound 10 µM, first compound 0.316 µM): 47.5%
viability, T/C (second compound 10 µM, first compound 1 µM): 43.2%
viability, T/C (second compound 10 µM, first compound 3.16 µM): 29.1%
viability, T/C (second compound 10 µM, first compound 10 µM): 20.9%

Cn1ncnc1[C@H]1c2n[nH]c(=O)c3cc(F)cc(c23)N[C@@H]1c1ccc(F)cc1 + CC(Nc1ncnc2nc[nH]c12)c1cc2cccc(Cl)c2c(=O)n1-c1ccccc1
IC50 (second compound 0.0316 µM): > 100 nM
IC50 (second compound 0.1 µM): > 100 nM
IC50 (second compound 0.316 µM): > 100 nM
IC50 (second compound 1 µM): > 100 nM
IC50 (second compound 3.16 µM): > 100 nM
IC50 (second compound 10 µM): < 0.316 nM
viability, T/C (second compound 0.0316 µM, first compound 0.000316 µM): 106%
viability, T/C (second compound 0.0316 µM, first compound 0.001 µM): 108%
viability, T/C (second compound 0.0316 µM, first compound 0.00316 µM): 97.6%
viability, T/C (second compound 0.0316 µM, first compound 0.01 µM): 92.5%
viability, T/C [1]: 98.9%
viability, T/C [2]: 77.1%
viability, T/C (second compound 0.1 µM, first compound 0.000316 µM): 99.7%
viability, T/C (second compound 0.1 µM, first compound 0.001 µM): 99.7%
viability, T/C (second compound 0.1 µM, first compound 0.00316 µM): 103%
viability, T/C (second compound 0.1 µM, first compound 0.01 µM): 94%
viability, T/C [3]: 92%
viability, T/C [4]: 79.2%
viability, T/C (second compound 0.316 µM, first compound 0.000316 µM): 94.7%
viability, T/C (second compound 0.316 µM, first compound 0.001 µM): 103%
viability, T/C (second compound 0.316 µM, first compound 0.00316 µM): 86.8%
viability, T/C (second compound 0.316 µM, first compound 0.01 µM): 93.3%
viability, T/C [5]: 86.9%
viability, T/C [6]: 76.1%
viability, T/C (second compound 1 µM, first compound 0.000316 µM): 87.2%
viability, T/C (second compound 1 µM, first compound 0.001 µM): 81.9%
viability, T/C (second compound 1 µM, first compound 0.00316 µM): 80.8%
viability, T/C (second compound 1 µM, first compound 0.01 µM): 78%
viability, T/C [7]: 73.4%
viability, T/C [8]: 65%
viability, T/C (second compound 3.16 µM, first compound 0.000316 µM): 63.7%
viability, T/C (second compound 3.16 µM, first compound 0.001 µM): 60.9%
viability, T/C (second compound 3.16 µM, first compound 0.00316 µM): 54.1%
viability, T/C (second compound 3.16 µM, first compound 0.01 µM): 60.6%
viability, T/C [9]: 49.8%
viability, T/C [10]: 52.3%
viability, T/C (second compound 10 µM, first compound 0.000316 µM): 48.9%
viability, T/C (second compound 10 µM, first compound 0.001 µM): 47.6%
viability, T/C (second compound 10 µM, first compound 0.00316 µM): 46.8%
viability, T/C (second compound 10 µM, first compound 0.01 µM): 46.4%
viability, T/C [11]: 46%
viability, T/C [12]: 38.8%
